Measurements published in article PMC8041284, “Tunable Methacrylamides for Covalent Ligand Directed Release Chemistry” (Journal of the American Chemical Society, 2021).

These compounds were tested against BTK (Homo sapiens, UniProt Q06187) (assay: biochemical). Conditions: read-out: BTK inhibition (%), 0.75 uM BTK, […] probe 3l, 15 min preincubation.
BTK, sequence (Q06187 402-655 limits assumed): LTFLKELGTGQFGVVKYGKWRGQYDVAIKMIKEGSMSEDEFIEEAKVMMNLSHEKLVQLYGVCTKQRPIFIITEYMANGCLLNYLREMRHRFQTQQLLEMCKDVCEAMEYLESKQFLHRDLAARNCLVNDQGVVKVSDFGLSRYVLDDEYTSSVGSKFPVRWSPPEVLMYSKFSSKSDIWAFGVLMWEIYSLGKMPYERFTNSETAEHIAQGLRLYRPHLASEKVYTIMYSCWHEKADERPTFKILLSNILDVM

Compared with `CCCCCN(C)CCC(O)(P(=O)(O)O)P(=O)(O)O` [PCM-0065595], `CCCCc1nc2cc(/C=C/C(=O)NO)ccc2n1CCN(CC)CC` [PCM-0095187] is higher in inhibition at 10 µM: -0.9% for the first, 9.7% for the second.

First: O=C(c1cc(Cc2n[nH]c(=O)c3ccccc23)ccc1F)N1CCN(C(=O)C2CC2)CC1 [PCM-0094988]
Second: CN(C)CC(=O)Nc1ccc2[nH]c(=O)c3ccccc3c2c1 [PCM-0213810]
The inhibition at 10 µM of the first is higher: 9.7% for the first, -7.7% for the second.

Going from `CC(C)=CCC[C@@](C)(O)[C@H]1CC[C@]2(C)[C@@H]1[C@H](O)C[C@@H]1[C@@]3(C)CC[C@H](O)C(C)(C)[C@@H]3[C@@H](O[C@@H]3O[C@H](CO)[C@@H](O)[C@H](O)[C@H]3O)C[C@]12C` [PCM-0216547] to `C[C@H]1[C@H](C)CC[C@]2(C(=O)O[C@@H]3O[C@H](CO[C@@H]4O[C@H](CO)[C@@H](O[C@@H]5O[C@@H](C)[C@H](O)[C@@H](O)[C@H]5O)[C@H](O)[C@H]4O)[C@@H](O)[C@H](O)[C@H]3O)CC[C@]3(C)C(=CC[C@@H]4[C@@]5(C)C[C@@H](O)[C@H](O)[C@@](C)(CO)[C@@H]5[C@H](O)C[C@]43C)[C@H]12` [PCM-0215102], the inhibition at 10 µM falls from 12.4% to 10.1%.

Compared with `Cc1cccc(C)c1NC(=O)CN1CCCC1=O` [PCM-0065191], `CC1CCN(CC[C@H]2CCCN2S(=O)(=O)c2cccc(O)c2)CC1` [PCM-0065410] is higher in inhibition at 10 µM: -8.6% for the first, 7.8% for the second.

Going from `CC1(C)[C@@H]2CC[C@@]1(C)[C@@H](O)C2` [PCM-0214946] to `CC1=CC(=O)[C@H]2C[C@@H]1C2(C)C` [PCM-0216612], the inhibition at 10 µM rises from 3.1% to 7.7%.

First: C#C[C@]1(O)CC[C@H]2[C@@H]3CCc4cc(OC5CCCC5)ccc4[C@H]3CC[C@@]21C [PCM-0214893]
Second: CC1(C)[C@@H](O)CC[C@]2(C)[C@H]3C(=O)C=C4[C@@H]5C[C@@](C)(C(=O)O)CC[C@]5(C)CC[C@@]4(C)[C@]3(C)CC[C@@H]12 [PCM-0214675]
The inhibition at 10 µM of the first is lower: -8.6% for the first, 4.7% for the second.

First: O=c1[nH]c(=S)[nH]c2nc(-c3ccccc3)c(-c3ccccc3)nc12 [PCM-0215641]
Second: O=c1cc(-c2ccccc2)oc2c1ccc1ccccc12 [PCM-0216134]
The inhibition at 10 µM of the first is higher: 17% for the first, -0.8% for the second.

First: NC(=O)c1cccnc1 [PCM-0085961]
Second: O=C(Cn1ccnc1[N+](=O)[O-])NCc1ccccc1 [PCM-0214934]
The inhibition at 10 µM of the first is higher: 12.5% for the first, 3.1% for the second.

First: CCCC[N+]1(C)[C@@H]2CC(OC(=O)[C@H](CO)c3ccccc3)C[C@H]1[C@@H]1O[C@@H]12 (stereo partly shown) [PCM-0086491]
Second: CCNC(=O)CCC/C=C\C[C@@H]1[C@@H](/C=C/[C@@H](O)CCc2ccccc2)[C@H](O)C[C@@H]1O [PCM-0095085]
The inhibition at 10 µM of the first is lower: -17.9% for the first, 15.2% for the second.

Compared with `CCOc1ccccc1O[C@H](c1ccccc1)[C@H]1CNCCO1` [PCM-0095634], `CCOC(=O)CC(=O)N1CCSC1COc1ccccc1OC` (stereo not shown) [PCM-0090669] is lower in inhibition at 10 µM: -7% for the first, -8.6% for the second.

Going from `CCO[C@@H]1OC(=O)C[C@@H]1NC(=O)[C@@H]1CCCN1C(=O)[C@@H](NC(=O)c1ccc(N)c(Cl)c1)C(C)(C)C` [PCM-0214671] to `Cc1onc(-c2c(Cl)cccc2Cl)c1C(=O)N[C@@H]1C(=O)N2[C@@H]1SC(C)(C)[C@@H]2C(=O)O` [PCM-0214747], the inhibition at 10 µM rises from -8.6% to 9.3%.

First: C[C@@H]1C[C@H]2[C@@H]3CCC4=CC(=O)C=C[C@]4(C)[C@@]3(Cl)[C@@H](O)C[C@]2(C)[C@@]1(OC(=O)c1ccco1)C(=O)CCl [PCM-0085978]
Second: C=C1[C@H]2C[C@@]3([C@@H]1O)[C@@H](CC2=O)[C@]12[C@@H]4C[C@H]3[C@H]1N(CC)C[C@]4(C)CC[C@@H]2O [PCM-0216364]
The inhibition at 10 µM of the first is higher: 40% for the first, 19.3% for the second.

Going from `Cn1c([N+](=O)[O-])cnc1COC(N)=O` [PCM-0086329] to `CC(C)[C@H](N)C(=O)OCC(CO)OCn1cnc2c(=O)[nH]c(N)nc21` (stereo partly shown) [PCM-0214750], the inhibition at 10 µM rises from -12.5% to -2.3%.

Going from `OC1CC2CCC(C1)N2` (stereo not shown) [PCM-0215141] to `CC(C)=C1CC[C@@H](C)CC1=O` [PCM-0216421], the inhibition at 10 µM rises from -1.6% to 14.7%.

Going from `C[C@H](CC[C@@]1(O)O[C@H]2C[C@H]3[C@@H]4CC=C5C[C@@H](O[C@@H]6O[C@H](CO)[C@@H](O[C@@H]7O[C@@H](C)[C@H](O)[C@@H](O)[C@H]7O)[C@H](O)[C@H]6O[C@@H]6O[C@@H](C)[C@H](O)[C@@H](O)[C@H]6O)CC[C@]5(C)[C@H]4CC[C@]3(C)[C@H]2[C@@H]1C)CO[C@@H]1O[C@H](CO)[C@@H](O)[C@H](O)[C@H]1O` [PCM-0215060] to `CO[C@]1(CC[C@@H](C)CO[C@@H]2O[C@H](CO)[C@@H](O)[C@H](O)[C@H]2O)O[C@H]2C[C@H]3[C@@H]4CC=C5C[C@@H](O[C@@H]6O[C@H](CO)[C@@H](O[C@@H]7O[C@@H](C)[C@H](O)[C@@H](O)[C@H]7O)[C@H](O)[C@H]6O[C@@H]6O[C@@H](C)[C@H](O)[C@@H](O)[C@H]6O)CC[C@]5(C)[C@H]4CC[C@]3(C)[C@H]2[C@@H]1C` [PCM-0216533], the inhibition at 10 µM rises from -28% to -6.2%.

Compared with `CN(C)CCCC1(c2ccc(F)cc2)OCc2cc(C#N)ccc21` (stereo not shown) [PCM-0064474], `N#Cc1ccc2ncnc(NCCc3ccccc3)c2c1` [PCM-0215834] is lower in inhibition at 10 µM: -14.8% for the first, -30.3% for the second.

First: COc1ccc(/C=C/c2cc(O)cc(O)c2)cc1O [PCM-0216438]
Second: COc1ccc(CC(=O)O)cc1OC [PCM-0214949]
The inhibition at 10 µM of the first is higher: 14.7% for the first, -0.8% for the second.

First: CC(C)NCC(O)c1ccc(O)c(O)c1 (stereo not shown) [PCM-0065609]
Second: CC[C@H](c1ccc(O)cc1)[C@@H](CC)c1ccc(O)cc1 [PCM-0095223]
The inhibition at 10 µM of the first is higher: 7% for the first, -11.7% for the second.

Compared with `CCN1CCN(C(=O)N[C@@H](C(=O)N[C@@H]2C(=O)N3C(C(=O)O)=C(CSc4nnnn4C)CS[C@H]23)c2ccc(O)cc2)C(=O)C1=O` [PCM-0085943], `COc1cc2c(=O)c(-c3ccc(O)cc3)coc2cc1O[C@@H]1O[C@H](CO)[C@@H](O)[C@H](O)[C@H]1O` [PCM-0214955] is higher in inhibition at 10 µM: -12.5% for the first, 15.6% for the second.

Compared with `C/C(=C\CNc1ncnc2c1ncn2[C@@H]1O[C@H](CO)[C@@H](O)[C@H]1O)CO` [PCM-0216644], `OC[C@H]1OC(O)[C@H](O)[C@@H](O)[C@H]1O` (stereo partly shown) [PCM-0215038] is lower in inhibition at 10 µM: 0.8% for the first, -23.3% for the second.

Compared with `Cc1cccc2c3c(ccc12)C1=C(C(=O)C3=O)[C@@H](C)CO1` [PCM-0216343], `CCCCc1oc2ccccc2c1C(=O)c1cc(I)c(OCCN(CC)CC)c(I)c1` [PCM-0064561] is higher in inhibition at 10 µM: 22.4% for the first, 75.5% for the second.

Going from `Cc1cc(NC(=O)c2cccc(NC(=O)/C=C/CN(C)C)c2)ccc1Nc1nccc(-c2cccnc2)n1` [PCM-0095741] to `CCc1cc(Nc2nccc(-c3c(-c4ccc(OC)c(C(=O)Nc5c(F)cccc5F)c4)nc4ccccn34)n2)c(OC)cc1N1CCC(N2CCN(S(C)(=O)=O)CC2)CC1` [PCM-0095069], the inhibition at 10 µM rises from 9.7% to 44.8%.

Going from `CO[C@H]1/C=C/O[C@@]2(C)Oc3c(C)c(O)c4c(O)c(c5c(c4c3C2=O)=NC2(CCN(CC(C)C)CC2)N=5)NC(=O)/C(C)=C\C=C\[C@H](C)[C@H](O)[C@@H](C)[C@@H](O)[C@@H](C)[C@H](OC(C)=O)[C@@H]1C` [PCM-0095185] to `C[C@@H]1O[C@@H](OC[C@H]2O[C@@H](Oc3c(-c4ccc(O)c(O)c4)oc4cc(O)cc(O)c4c3=O)[C@H](O)[C@@H](O)[C@@H]2O)[C@H](O)[C@H](O)[C@H]1O` [PCM-0087529], the inhibition at 10 µM falls from 7% to -2.1%.

Going from `C[C@H]1[C@H](OC(=O)CCC(=O)O)O[C@@H]2O[C@@]3(C)CC[C@H]4[C@H](C)CC[C@@H]1[C@@]24OO3` [PCM-0214643] to `CC1(C)CC[C@]2(C(=O)O)CC[C@]3(C)C(=CC[C@@H]4[C@@]5(C)CC[C@H](O)C(C)(C)[C@@H]5CC[C@]43C)[C@@H]2C1` [PCM-0214680], the inhibition at 10 µM rises from 6.2% to 27.2%.

First: CCC(C)SSc1ncc[nH]1 (stereo not shown) [PCM-0215586]
Second: CC(C)=CCCC(C)CC=O (stereo not shown) [PCM-0216209]
The inhibition at 10 µM of the first is lower: 2.3% for the first, 4.6% for the second.

First: NC(=O)CC[C@H](N)C(=O)O [PCM-0065292]
Second: CC(=O)N[C@@H](CS)C(=O)O [PCM-0064400]
The inhibition at 10 µM of the first is higher: 17.9% for the first, 5.5% for the second.

Going from `O=C1CCc2ccccc2O1` [PCM-0216624] to `O=[N+]([O-])c1ccc(Nc2ccccc2-c2ccccc2)c2nonc12` [PCM-0215806], the inhibition at 10 µM rises from -9.3% to 74.1%.

Compared with `CCn1cc(C(=O)O)c(=O)c2cc(F)c(N3CCNC(C)C3)c(F)c21` (stereo not shown) [PCM-0065465], `CCN1CCN(Cc2ccc(C(=O)Nc3ccc(C)c(Oc4ccc5c(c4)CC(=O)N5)c3)cc2C(F)(F)F)CC1` [PCM-0213332] is higher in inhibition at 10 µM: -2.6% for the first, 20.7% for the second.

Going from `COC(=O)c1ccc2c(c1)[nH]c1ncnc(NCCCN3CCCCC3)c12` [PCM-0215451] to `Cc1c(-c2ccc(O)cc2)n(Cc2ccc(OCCN3CCCCCC3)cc2)c2ccc(O)cc12` [PCM-0095308], the inhibition at 10 µM rises from -0.8% to 84%.

First: COc1cc2c(cc1OC)[C@H]1[C@@H](C)c3ccc(OC)c(OC)c3CN1CC2 [PCM-0216500]
Second: COc1cc(F)c(C(C)C)cc1-c1ccc(C(F)(F)F)cc1CN1C(=O)O[C@H](c2cc(C(F)(F)F)cc(C(F)(F)F)c2)[C@@H]1C [PCM-0095486]
The inhibition at 10 µM of the first is lower: -27% for the first, 22.6% for the second.

First: O=Cc1ccc(CO)o1 [PCM-0216119]
Second: O=C(O)CCN1C(=O)/C(=C/c2ccc(-c3ccc([N+](=O)[O-])cc3)o2)SC1=S [PCM-0215696]
The inhibition at 10 µM of the first is lower: -2.3% for the first, 59.5% for the second.

First: CC(C)OC(=O)[C@H](C)N[P@](=O)(OC[C@H]1O[C@@H](n2ccc(=O)[nH]c2=O)[C@](C)(F)[C@@H]1O)Oc1ccccc1 [PCM-0214785]
Second: C=CC(=O)N1CC(N2CCN(C(=O)CNc3cc(C4(C)CC4)c(Cl)cc3O)CC2)C1 [PCM-0215823]
The inhibition at 10 µM of the first is higher: 13.2% for the first, -9.3% for the second.

First: CC(C)=C[C@H]1C[C@](C)(O)[C@@H]2[C@H]3CC[C@@H]4[C@@]5(C)CC[C@H](O[C@@H]6OC[C@H](O)[C@H](O[C@@H]7O[C@H](CO[C@@H]8O[C@H](CO)[C@@H](O)[C@H](O)[C@H]8O)[C@@H](O)[C@H](O)[C@H]7O[C@@H]7OC[C@@H](O)[C@H](O)[C@H]7O)[C@H]6O[C@@H]6O[C@@H](C)[C@H](O)[C@@H](O)[C@H]6O)C(C)(C)[C@@H]5CC[C@@]4(C)[C@@]34CO[C@@]2(C4)O1 [PCM-0216469]
Second: Cc1cc(-c2nc(-c3ccc(OC(F)(F)F)cc3)no2)nn1Cc1ccnc(N2CCN(C3CC3)CC2)c1 [PCM-0215339]
The inhibition at 10 µM of the first is higher: 10% for the first, -1.5% for the second.

`O=C(O)C(=O)O` [PCM-0216287] showed an inhibition at 10 µM of -10%.
